The nature of data set [1]: Toxicity assessed as induction of haemolysis in rat erythrocytes at 1 mM after 30 mins. To be noted: read-out: Activity. The format is cell-based, Erythrocyte.
Data set [2] in a line: Inhibition of IL2 production in antigen stimulated mouse 2B4.11 T hybridoma cells at 10 uM. It is filed as functional.
The nature of data set [3]: Inhibition of IL2 production in antigen stimulated mouse 2B4.11 T hybridoma cells at 5 uM. The format is functional.
A short description of data set [4]: Apparent permeability across human Caco-2 cells. It is filed as ADME, cell-based. Background: Caco-2 cells form a polarised layer with tight junctions and transporters.
Data set [5] in a line: Inhibition of IL2 production in antigen stimulated mouse 2B4.11 T hybridoma cells at 25 uM. It is filed as functional.
Data set [6] can be described thus: Effect on transfection efficacy in human D407 cells assessed as reduction of hVEGF expression after 48 hrs by ELISA. The format is functional. Background: ELISA stands for enzyme-linked immunosorbent assay.
The nature of data set [7]: Effect on transfection efficacy in human D407 cells assessed as reduction of hVEGF expression after 24 hrs by ELISA. It is filed as functional.
Data set [8] relates to T-cell. Kind of data set: Inhibition of activation of antigen stimulated mouse 2B4.11 T cells assessed as IL2 production. The format is functional, cell-based.

Square brackets hold non-standard residues; d marks the D form. Peptide text beside a SMILES is read from it. ξ: configuration not given here. ξGly(decyl) = CCCCCCCCCCC(N)C(=O)O

`CC[C@H](C)[C@H](NC(=O)[C@H](CCCNC(=N)N)NC(=O)[C@H](CC(C)C)NC(=O)CN)C(=O)N[C@@H](CC(C)C)C(=O)N[C@@H](CC(C)C)C(=O)N[C@@H](CC(C)C)C(=O)N[C@@H](CCCCN)C(=O)N[C@H](C(=O)O)C(C)C` (H-GLRILLLKV-OH): the hemolysis at 0.5 h, 1000 µM in data set [1] is under 2%. Moreover, the Inhibition is 102.53% in data set [2]; 107% in data set [3]; 74.52% in data set [5]; 63% in data set [6]; 55% in data set [7]. Moreover, in data set [4], the Papp was 0.042 ×10⁻⁶ cm/s.
As to `CCCCCCCCCCC(N)C(=O)NCC(=O)N[C@@H](CC(C)C)C(=O)N[C@@H](CCCNC(=N)N)C(=O)N[C@H](C(=O)N[C@@H](CC(C)C)C(=O)N[C@@H](CC(C)C)C(=O)N[C@@H](CC(C)C)C(=O)N[C@@H](CCCCN)C(=O)N[C@H](C(=O)O)C(C)C)[C@@H](C)CC` (stereo partly specified) (H-[ξGly(decyl)]GLRILLLKV-OH), in data set [1], the hemolysis at 0.5 h, 1000 µM was under 2%. Further, the Inhibition was determined as 48.13% in data set [2]; 105.7% in data set [3]; 81.17% in data set [5]; 76% in data set [6]; 70% in data set [7]. Also, the Activity result in data set [8] is “Dose-dependent effect”. For the same molecule, in data set [4], the Papp was 0.11 ×10⁻⁶ cm/s.
On to `OC[C@@H](O)[C@@H](O)[C@H](O)[C@H](O)CO` [MANNITOL], for which the apparent permeability coefficient (Papp) in data set [4] was 0.555 ×10⁻⁶ cm/s.

As a reminder, the Inhibition is the change of the read-out against control, counted positive when it falls. The Papp is a coefficient for how fast a substance crosses the barrier.

These data come from ChEMBL document CHEMBL1143051, “Novel cationic lipophilic peptides for oligodeoxynucleotide delivery” (Bioorg Med Chem, 2007).
